Patent US9938258B2 (Karyopharm Therapeutics Inc., priority 2012, dated 2018)
Where two headings read alike, the source gives them in different places.

Tests used:
Z138 cells = assay: MTT cell proliferation assay, Z138; type: cell-based; conditions: read-out: MTT Assay IC50, Z138
Description: (§1) The MTT cell proliferation assay was used to study the cytotoxic properties of the compounds. The assay was performed according to the method described by Roche Molecular Biochemicals, with minor modifications. The assay is based on the cleavage of the tetrazolium salt, MTT, in the presence of an electron-coupling reagent. The water-insoluble formazan salt produced must be solubilized in an additional step. Cells grown in a 96-well tissue culture plate were incubated with the MTT solution for approximately 4 hours. After this incubation period, a water-insoluble formazan dye formed. After solubilization, the formazan dye was quantitated using a scanning multi-well spectrophotometer (ELISA reader). […] The cells were seeded at 5,000-10,000 cells in each well of 96-well plate in 100 μL of fresh culture medium and were allowed to attach overnight. The stock solutions of the compounds were diluted in 100 μL cell culture medium to obtain eight concentrations of each test compound, ranging from 1 nM to 30 μM. […] All optical densities were measured at 490 nm using a Vmax Kinetic Microplate Reader (Molecular Devices). In most cases, the assay was performed in duplicate and the results were presented as a mean percent inhibition to the negative control±SE. The following formula was used to calculate the percent of inhibition: Inhibition (%)=(1-(ODo/OD)) ×100.
(§2) The compounds were tested against MS751, Z138 and 3T3 cells. The MS751 cell line is derived from a metastasis to lymph node of human cervix from a patient diagnosed with squameous cell carcinoma of the cervix. The Z138 cell line is a mature B-cell acute lymphoblastic leukemia cell line derived from a patient with chronic lumphocytic leukemia. 3T3 cells are standard fibroblast cells; they were originally isolated from Swiss mouse embryo tissue.

3T3 cells = assay: MTT cell proliferation assay, 3T3; type: cell-based, mouse; conditions: read-out: MTT Assay IC50, 3T3
Description: as §1, §2

MS751 cells = assay: MTT cell proliferation assay, MS751; type: cell-based, human; conditions: read-out: MTT Assay IC50, MS751
Description: as §1, §2

[1] = Homo sapiens, Z-138, Z138 cells, approximately 64-72 hours incubation
[2] = Mus musculus, NIH3T3, 3T3 cells, approximately 64-72 hours incubation
[3] = Homo sapiens, MS751, MS751 cells, approximately 64-72 hours incubation
[4] = Homo sapiens, Z-138, Z138 cells, eight concentrations 1 nM to 30 μM, incubation approximately 64-72 hours
[5] = Mus musculus, NIH3T3, 3T3 cells, eight concentrations 1 nM to 30 μM, incubation approximately 64-72 hours
[6] = Homo sapiens, MS751, MS751 cells, eight concentrations 1 nM to 30 μM, incubation approximately 64-72 hours

Row | SMILES | IC50 (Z138 cells; [1]) [µM] | IC50 (3T3 cells; [2]) [µM] | IC50 (MS751 cells; [3]) [µM] | also measured
1 | Cc1cc(-c2cc(Cl)c3c(c2)CC(CNC(=O)/C=C/c2ccc(N)nc2)O3)ccc1C(=O)N1CCOCC1 (stereo not drawn) [Compound 238, (E)-3-(6-aminopyridin-3-yl)-N-((7-chloro-5-(3-methyl-4-(morpholine-4-carbonyl)phenyl)-2,3-dihydrobenzofuran-2-yl)methyl)acrylamide] | < 0.1 | 0.1 to 5 | < 0.1 | 
2 | Nc1ccc(/C=C/C(=O)NCC2Cc3c(-c4cccc(C(=O)N5CCOCC5)c4)ccc(Cl)c3O2)cn1 (stereo not drawn) [Compound 915, (E)-3-(6-aminopyridin-3-yl)-N-((7-chloro-4-(3-(morpholine-4-carbonyl)phenyl)-2,3-dihydrobenzofuran-2-yl)methyl)acrylamide] | < 0.1 | 0.1 to 5 | < 0.1 | 
3 | O=C(/C=C/c1cccnc1)NCC1Cc2cc(-c3ccco3)cc(Cl)c2O1 (stereo not drawn) [Compound 42, (E)-N-((7-chloro-5-(furan-2-yl)-2,3-dihydrobenzofuran-2-yl)methyl)-3-(pyridin-3-yl)acrylamide] |  |  |  | IC50 (Z138 cells; [4]): 0.1 to 5 µM; IC50 (3T3 cells; [5]): 5 to 30 µM; IC50 (MS751 cells; [6]): 0.1 to 5 µM
4 | CC(=O)c1ccc(-c2cc(Cl)c3c(c2)CC(CNC(=O)/C=C/c2cc4cnn(C(C)C)c4[nH]c2=O)O3)s1 (stereo not drawn) [Compound 289, (E)-N-((5-(5-acetylthiophen-2-yl)-7-chloro-2,3-dihydrobenzofuran-2-yl)methyl)-3-(1-isopropyl-6-oxo-6,7-dihydro-1H-pyrazolo[3,4-b]pyridin-5-yl)acrylamide] | 0.1 to 5 | > 30 | 5 to 30 | 
5 | Nc1ccc(/C=C/C(=O)NCC2Cc3c(-c4ccc(C(=O)N5CCOCC5)cn4)ccc(Cl)c3O2)cn1 (stereo not drawn) [Compound 912, (E)-3-(6-aminopyridin-3-yl)-N-((7-chloro-4-(5-(morpholine-4-carbonyl)pyridin-2-yl)-2,3-dihydrobenzofuran-2-yl)methyl)acrylamide] | < 0.1 | 0.1 to 5 | 0.1 to 5 | 
6 | O=C(/C=C/c1cccnc1)NCC1Cc2cc(-c3cc(C(F)(F)F)cc(C(F)(F)F)c3)cc(Cl)c2O1 (stereo not drawn) [Compound 49, (E)-N-((5-(3,5-bis(trifluoromethyl)phenyl)-7-chloro-2,3-dihydrobenzofuran-2-yl)methyl)-3-(pyridin-3-yl)acrylamide] |  |  |  | IC50 (Z138 cells; [4]): 0.1 to 5 µM; IC50 (3T3 cells; [5]): 0.1 to 5 µM; IC50 (MS751 cells; [6]): 0.1 to 5 µM
7 | Nc1ccc(CNC(=O)/C=C/C2Cc3c(-c4ccc(C(=O)N5CC(F)C5)cc4)ccc(Cl)c3O2)cn1 (stereo not drawn) [Compound 352, (E)-N-((6-aminopyridin-3-yl)methyl)-3-(7-chloro-4-(4-(3-fluoroazetidine-1-carbonyl)phenyl)-2,3-dihydrobenzofuran-2-yl)acrylamide] | > 30 | 5 to 30 | 0.1 to 5 | 
8 | Nc1ccc(/C=C/C(=O)NCC2Cc3c(-c4cc(F)c(C(=O)N5CCOCC5)c(F)c4)ccc(Cl)c3O2)cn1 (stereo not drawn) [Compound 908, (E)-3-(6-Aminopyridin-3-yl)-N-((7-chloro-4-(3,5-difluoro-4-(morpholine-4-carbonyl)phenyl)-2,3-dihydrobenzofuran-2-yl)methyl)acrylamide] | < 0.1 | 0.1 to 5 | < 0.1 | 
9 | CC(=O)c1ccc(-c2cc(Cl)c3c(c2)CC(CNC(=O)/C=C/c2ccc(N(C)C)nc2)O3)s1 (stereo not drawn) [Compound 295, (E)-N-((5-(5-acetylthiophen-2-yl)-7-chloro-2,3-dihydrobenzofuran-2-yl)methyl)-3-(6-(dimethylamino)pyridin-3-yl)acrylamide] | > 30 | > 30 | > 30 | 
10 | CC(=O)c1ccc(-c2cc(Cl)c3c(c2)CC(CNC(=O)/C=C/c2cccnc2)O3)s1 (stereo not drawn) [Compound 122, (E)-N-((5-(5-acetylthiophen-2-yl)-7-chloro-2,3-dihydrobenzofuran-2-yl)methyl)-3-(pyridin-3-yl)acrylamide] |  |  |  | IC50 (Z138 cells; Z138 cells, eight concentrations 1 nM to 30 μM, incubation approximately 64-72 hours): 0.1 to 5 µM; IC50 (3T3 cells; 3T3 cells, eight concentrations 1 nM to 30 μM, incubation approximately 64-72 hours): 0.1 to 5 µM; IC50 (MS751 cells; MS751 cells, eight concentrations 1 nM to 30 μM, incubation approximately 64-72 hours): 0.1 to 5 µM
11 | Cc1noc(C)c1-c1cc(Cl)c2c(c1)CC(CNC(=O)/C=C/c1ccc(N)nc1)O2 (stereo not drawn) [Compound 300, (E)-3-(6-aminopyridin-3-yl)-N-((7-chloro-5-(3,5-dimethylisoxazol-4-yl)-2,3-dihydrobenzofuran-2-yl)methyl)acrylamide] | < 0.1 | > 30 | 0.1 to 5 | 
12 | CC(=O)c1ccc(-c2cc(Cl)c3c(c2)CC(CNC(=O)/C=C/c2ccncc2)O3)s1 (stereo not drawn) [Compound 24, (E)-N-((5-(5-acetylthiophen-2-yl)-7-chloro-2,3-dihydrobenzofuran-2-yl)methyl)-3-(pyridin-4-yl)acrylamide] |  |  |  | IC50 (Z138 cells; [4]): > 30 µM; IC50 (3T3 cells; [5]): > 30 µM; IC50 (MS751 cells; [6]): > 30 µM
13 | Nc1ccc(CNC(=O)/C=C/C2Cc3cc(-c4ccccc4S(=O)(=O)N4CCOCC4)cc(Cl)c3O2)cn1 (stereo not drawn) [Compound 360, (E)-N-((6-aminopyridin-3-yl)methyl)-3-(7-chloro-5-(2-(morpholinosulfonyl)phenyl)-2,3-dihydrobenzofuran-2-yl)acrylamide] | 0.1 to 5 | < 0.1 | < 0.1 | 
14 | Nc1ccc(/C=C/C(=O)NCC2Cc3cc(-c4ccc(C(=O)C(=O)N5CCOCC5)cc4)cc(Cl)c3O2)cn1 (stereo not drawn) [Compound 909, (E)-3-(6-aminopyridin-3-yl)-N-((7-chloro-5-(4-(2-morpholino-2-oxoacetyl)phenyl)-2,3-dihydrobenzofuran-2-yl)methyl)acrylamide] | < 0.1 | 0.1 to 5 | < 0.1 | 
15 | Nc1ccc(/C=C/C(=O)NCC2Cc3cc(-c4ccc(C(=O)N5CC(F)(F)C5)cn4)cc(Cl)c3O2)cn1 (stereo not drawn) [Compound 338, (E)-3-(6-aminopyridin-3-yl)-N-((7-chloro-5-(5-(3,3-difluoroazetidine-1-carbonyl)pyridin-2-yl)-2,3-dihydrobenzofuran-2-yl)methyl)acrylamide] | < 0.1 | 0.1 to 5 | < 0.1 | 
16 | CCOC(=O)CCOCCOCCC(=O)N1CCN(C(=O)c2ccc(-c3cc(Cl)c4c(c3)CC(CNC(=O)/C=C/c3ccc(N)nc3)O4)cc2)CC1 (stereo not drawn) [Compound 354, (E)-ethyl 3-(2-(3-(4-(4-(2-((3-(6-aminopyridin-3-yl)acrylamido)methyl)-7-chloro-2,3-dihydrobenzofuran-5-yl)benzoyl)piperazin-1-yl)-3-oxopropoxy)ethoxy)propanoate] | 5 to 30 | < 0.1 | < 0.1 | 
17 | CC(=O)c1ccc(-c2cc(Cl)c3c(c2)CC(CNC(=O)/C=C/c2c(C)nn4c(C(F)(F)F)ccnc24)O3)s1 (stereo not drawn) [Compound 287, (E)-N-((5-(5-acetylthiophen-2-yl)-7-chloro-2,3-dihydrobenzofuran-2-yl)methyl)-3-(2-methyl-7-(trifluoromethyl)pyrazolo[1,5-a]pyrimidin-3-yl) acryl amide] | > 30 | > 30 | > 30 | 
18 | CC(=O)c1ccc(-c2cc(Cl)c3c(c2)CC(CNC(=O)/C=C/c2coc(C)n2)O3)s1 (stereo not drawn) [Compound 196, (E)-N-((5-(5-acetylthiophen-2-yl)-7-chloro-2,3-dihydrobenzofuran-2-yl)methyl)-3-(2-methyloxazol-4-yl)acrylamide] | > 30 | > 30 | > 30 | 
19 | CC(=O)c1ccc(Oc2cc(Cl)c3c(c2)CC(CNC(=O)/C=C/c2cccnc2)O3)s1 (stereo not drawn) [Compound 303, (E)-N-((5-(5-acetylthiophen-2-yloxy)-7-chloro-2,3-dihydrobenzofuran-2-yl)methyl)-3-(pyridin-3-yl)acrylamide] | 0.1 to 5 | 0.1 to 5 | 0.1 to 5 | 
20 | CC(=O)c1ccc(-c2cc(Cl)c3c(c2)CC(CNC(=O)/C=C/c2cn(C)nc2C)O3)s1 (stereo not drawn) [Compound 156, (E)-N-((5-(5-acetylthiophen-2-yl)-7-chloro-2,3-dihydrobenzofuran-2-yl)methyl)-3-(1,3-dimethyl-1H-pyrazol-4-yl)acrylamide] |  |  |  | IC50 (Z138 cells; [4]): > 30 µM; IC50 (3T3 cells; [5]): > 30 µM; IC50 (MS751 cells; [6]): > 30 µM
21 | CC(=O)c1ccc(-c2cc(Cl)c3c(c2)CC(CNC(=O)/C=C/c2cc(C)n(-c4nccs4)c2C)O3)s1 (stereo not drawn) [Compound 285, (E)-N-((5-(5-Acetylthiophen-2-yl)-7-chloro-2,3-dihydrobenzofuran-2-yl)methyl)-3-(2,5-dimethyl-1-(thiazol-2-yl)-1H-pyrrol-3-yl)acrylamide] | > 30 | > 30 | > 30 | 
